Assays:
Type in all cases: in vivo
[1] = test system: green peach aphid (Myzus persicae); assay: B.1 Green peach aphid, systemic, artificial diet in microtiter plates; details: for mortality at 2500 ppm: 72 h, 3 days, aphid diet, read-out: mortality in comparison with untreated controls; for mortality at 9.9 ppm / mortality at 7.9 ppm: read-out: % mortality in comparison to untreated controls, B.1
Text: B.1 Green Peach Aphid (Myzus persicae)
For evaluating control of green peach aphid (Myzus persicae) through systemic means, the test unit consisted of 96-well-microtiter plates containing liquid artificial diet under an artificial mem brane.
The compounds were formulated using a solution containing 75% v/v water and 25% v/v DMSO. Different concentrations of formulated compounds were pipetted into the aphid diet, using a custom built pipetter, at two replications.
After application, 5-8 adult aphids were placed on the artificial membrane inside the microtiter plate wells. The aphids were then allowed to suck on the treated aphid diet and incubated at about 23±1° C. and about 50±5% relative humidity for 3 days. Aphid mortality and fecundity was then visually assessed.

[2] = test system: Southern Armyworm (Spodoptera eridania), 2nd Instar Larvae; assay: B.4 Southern armyworm, 2nd instar larvae, sprayed lima bean plants; details: 96 h, 4 days after treatment, foliar spray, read-out: mortality in comparison with untreated controls
Protocol: B.4. Southern Armyworm (Spodoptera eridania), 2nd Instar Larvae
The active compounds were formulated by a Tecan liquid handler in 100% cyclohexanone as a 10,000-ppm solution supplied in tubes. The 10,000-ppm solution was serially diluted in 100% cyclohexanone to make interim solutions. These served as stock solutions for which final dilutions were made by the Tecan in 50% acetone:50% water (v/v) into 10 or 20 ml glass vials. A non-ionic surfactant (Kinetic@) was included in the solution at a volume of 0.01% (v/v). The vials were then inserted into an automated electrostatic sprayer equipped with an atomizing nozzle for application to plants/insects. Lima bean plants (variety Sieva) were grown 2 plants to a pot and selected for treatment at the 1st true leaf stage. Test solutions were sprayed onto the foliage by an automated electrostatic plant sprayer equipped with an atomizing spray nozzle. The plants were dried in the sprayer fume hood and then removed from the sprayer. Each pot was placed into perforated plastic bags with a zip closure. Ten to 11 armyworm larvae were placed into the bag and the bags zipped closed. Test plants were maintained in a growth room at about 25° C. and about 20-40% relative humidity for 4 days, avoiding direct exposure to fluorescent light (14:10 light:dark photoperiod) to prevent trapping of heat inside the bags. Mortality and reduced feeding were assessed 4 days after treatment, compared to untreated control plants.

[3] = test system: boll weevil (Anthonomus grandis); assay: B.3 Boll weevil, insect diet with eggs in microtiter plates; details: for mortality at 2500 ppm: 120 h, read-out: mortality in comparison with untreated controls; for mortality at 7.9 ppm: read-out: % mortality in comparison to untreated controls, B.3
Protocol: B.3 Boll Weevil (Anthonomus grandis)
For evaluating control of boll weevil (Anthonomus grandis), the test unit consisted of 96-well-microtiter plates containing an insect diet and 5-10 A. grandis eggs.
The compounds were formulated using a solution containing 75% v/v water and 25% v/v DMSO. Different concentrations of formulated compounds were sprayed onto the insect diet at 5 μl, using a custom-built micro atomizer, at two replications.
After application, microtiter plates were incubated at about 25±1° C. and about 75±5% relative humidity for 5 days. Egg and larval mortality was then visually assessed.

[4] = test system: tobacco budworm (Heliothis virescens); assay: B.2 Tobacco budworm, insect diet with eggs in microtiter plates; details: 120 h, 5 days, egg and larval mortality, read-out: mortality in comparison with untreated controls
Protocol: B.2 Tobacco Budworm (Heliothis virescens)
For evaluating control of tobacco budworm (Heliothis virescens), the test unit consisted of 96-well-microtiter plates containing an insect diet and 15-25 H. virescens eggs.
The compounds were formulated using a solution containing 75% v/v water and 25% v/v DMSO. Different concentrations of formulated compounds were sprayed onto the insect diet at 10 μl, using a custom-built micro atomizer, at two replications.
After application, microtiter plates were incubated at about 28±1° C. and about 80±5% relative humidity for 5 days. Egg and larval mortality was then visually assessed.

[5] = test system: yellow fever mosquito (Aedes aegypti); assay: whole plant or invertebrate; details: 48 h, 2 days, larval mortality, read-out: mortality in comparison with untreated controls
Protocol: B.5 Yellow Fever Mosquito (Aedes aegypti)
For evaluating control of yellow fever mosquito (Aedes aegypti) the test unit consisted of 96-well-microtiter plates containing 200 μl of tap water per well and 5-15 freshly hatched A. aegypti larvae.
The active compounds were formulated using a solution containing 75% (v/v) water and 25% (v/v) DMSO. Different concentrations of formulated compounds or mixtures were sprayed onto the insect diet at 2.5 μl, using a custom-built micro atomizer, at two replications.
After application, microtiter plates were incubated at 28±1° C., 80±5% RH for 2 days. Larval mortality was then visually assessed.

[6] = test system: Black Bean Aphid; Aphis craccivora; assay: B.7 Black bean aphid, sprayed potted bean plants; details: 300 ppm; after 72 hours
Protocol: B.7 APHICR (Black Bean Aphid; Aphis craccivora)
The active compound is dissolved at the desired concentration in a mixture of 1:1 (vol:vol) distilled water:acetone. Surfactant (Kinetic) is added at a rate of 0.01% (vol/vol). The test solution is prepared at the day of use.
Potted (Kord traditional square pots Size 3″ and 2.5″ in depth) bush beans are cleaned with the apical leaves removed using pointed forceps, leaving only the cotyledon leaves. Plants are inoculated with about 30 mixed-stage aphid colony 24 hours before spraying. Potted bean plants are sprayed with the test solutions using a DeVilbiss hand atomizer (20-30 psi). Treated plants are allowed to air-dry in the laboratory for about an hour before placing them inside the holding room maintained at 27° C., 50% RH and […] conditions. Stem of the treated bean plants are inserted in the slit of cut circle filter paper to catch the falling dead aphids. Assessment of population reduction (% mortality) is done after 72 hours.

[7] = test system: Orchid thrips; Dichromothrips corbetti; assay: B.6 Orchid thrips, floral-immersion technique; details: 300 ppm; 72 hours after treatment
Protocol: B.6 ANAPCO (Orchid thrips; Dichromothrips corbetti)
Dichromothrips corbetti adults used for bioassay are obtained from a colony maintained continuously under laboratory conditions. For testing purposes, the test compound is diluted in a 1:1 mixture of acetone:water (vol:vol), plus Kinetic at a rate of 0.01% v/v.
Thrips potency of each compound is evaluated by using a floral-immersion technique. Each orchid petal is dipped into treatment solution and allowed to dry in Petri dishes. Treated petals are placed into individual re-sealable plastic along with about 20 adult thrips. All test arenas are held under dark condition and a temperature of about 28° C. for duration of the assay. The percent mortality is recorded 72 hours after treatment.

| Structure (SMILES) | mortality at 2500 ppm [1] [%] | mortality at 300 ppm [2] [%] | mortality at 2500 ppm [3] [%] | mortality at 2500 ppm [4] [%] | mortality at 2500 ppm [5] [%] | mortality at 9.9 ppm [1] [%] | % mortality in comparison to untreated controls, B.7 [6] [%] | % mortality in comparison to untreated controls, B.6 [7] [%] | mortality at 7.9 ppm [1] [%] | mortality at 7.9 ppm [3] [%] |
| --- | --- | --- | --- | --- | --- | --- | --- | --- | --- | --- |
| CC(NC(=O)c1cc(Br)cc(C(F)(F)F)c1)c1nccnc1-c1ncn(CC(F)(F)F)n1 (centres unmarked) [Compound I1-1, 3-bromo-N-[1-[3-[1-(2,2,2-trifluoroethyl)-1,2,4-triazol-3-yl]pyrazin-2-yl]ethyl]-5-(trifluoromethyl)benzamide] | ≥ 75 | ≥ 75 | ≥ 75 | ≥ 75 | ≥ 75 | – | – | – | – | – |
| COc1ccc(Cn2cnc(-c3nccnc3C(C)NC(=O)c3cc(Cl)cc(C(F)(F)F)c3)n2)cc1 (centres unmarked) [Compound I1-4, 3-chloro-N-[1-[3-[1-[(4-methoxyphenyl)methyl]-1,2,4-triazol-3-yl]pyrazin-2-yl]ethyl]-5-(trifluoromethyl)benzamide] | – | ≥ 75 | ≥ 75 | – | – | – | – | – | – | – |
| CC(c1nccnc1-c1ncn(C(C)C)n1)N(C)C(=O)c1cc(Cl)cc(S(C)(=O)=O)c1 (centres unmarked) [Compound I1-5, 3-chloro-N-[1-[3-(1-isopropyl-1,2,4-triazol-3-yl)pyrazin-2-yl]ethyl]-N-methyl-5-methylsulfonyl-benzamide] | ≥ 75 | ≥ 75 | ≥ 75 | – | ≥ 75 | – | – | – | – | – |
| CC(NC(=O)c1cc(Cl)cc(S(C)(=O)=O)c1)c1nccnc1-c1ncn(C(C)C)n1 (centres unmarked) [Compound I1-7, 3-chloro-N-[1-[3-(1-isopropyl-1,2,4-triazol-3-yl)pyrazin-2-yl]ethyl]-5-methylsulfonyl-benzamide] | ≥ 75 | ≥ 75 | ≥ 75 | – | ≥ 75 | – | – | – | – | – |
| CC(NC(=O)c1cc(Cl)cc(C(F)(F)F)c1)c1nccnc1-c1ncn(CC=C(Cl)Cl)n1 (centres unmarked) [Compound I1-11, 3-chloro-N-[1-[3-[1-(3,3-dichloroallyl)-1,2,4-triazol-3-yl]pyrazin-2-yl]ethyl]-5-(trifluoromethyl)benzamide] | – | – | ≥ 75 | ≥ 75 | ≥ 75 | – | – | – | – | – |
| CC(NC(=O)c1cc(C(F)(F)F)cc(C(F)(F)F)c1)c1nccnc1-c1ncn(C)n1 (centres unmarked) [Compound I1-12] | ≥ 75 | ≥ 75 | ≥ 75 | ≥ 75 | ≥ 75 | 100 | 100 | 100 | – | – |
| CC(NC(=O)c1cc(C(F)(F)F)cc(C(F)(F)F)c1)c1nccnc1-c1ncn(CC(F)(F)F)n1 (centres unmarked) [Compound I1-13] | ≥ 75 | ≥ 75 | ≥ 75 | ≥ 75 | ≥ 75 | – | – | 100 | 100 | 100 |
| CC(NC(=O)c1cc(Cl)cc(C(F)(F)F)c1)c1nccnc1-c1ncn(CC2CC2(Cl)Cl)n1 (centres unmarked) [Compound I1-14, 3-chloro-N-[1-[3-[1-[(2,2-dichlorocyclopropyl)methyl]-1,2,4-triazol-3-yl]pyrazin-2-yl]ethyl]-5-(trifluoromethyl)benzamide] | ≥ 75 | ≥ 75 | ≥ 75 | ≥ 75 | ≥ 75 | – | – | – | – | – |
| CC(NC(=O)c1cc(Cl)nc(Cl)c1)c1nccnc1-c1ncn(-c2ccccc2)n1 (centres unmarked) [Compound I2-1, 2,6-dichloro-N-[1-[3-(1-phenyl-1,2,4-triazol-3-yl)pyrazin-2-yl]ethyl]pyridine-4-carboxamide] | ≥ 75 | – | ≥ 75 | – | ≥ 75 | – | – | – | – | – |
| Cc1cnn(-c2nccnc2C(C)NC(=O)c2cc(C(F)(F)F)cc(C(F)(F)F)c2)n1 (centres unmarked) [WO 2021/037614 P1, reference compound] | – | – | – | – | – | 0 | 0 | 0 | – | – |
| CC(NC(=O)c1cc(C(F)(F)F)cc(C(F)(F)F)c1)c1nccnc1-n1cncn1 (centres unmarked) [WO 2021/037614 P46, reference compound] | – | – | – | – | – | 25 | 50 | 0 | 0 | 50 |

Source: US20250129052A1, “PYRAZINE COMPOUNDS FOR THE CONTROL OF INVERTEBRATE PESTS” (priority 2021, published 2025)
